Series [1] concerns subgenomic HCV replicons I389luc-ubi-neo/NS3-3′/5.1 (Huh 5-2). In words: Anti-HCV assay in Huh 5-2 cells (luciferase replicon). Type of series: cell-based, hepatitis C virus (HCV). The settings on record: for potency with respect to HCV compared with compound CHC5 (free nucleoside): comparison of Table I data. An excerpt:
(§1) Anti-HCV assay in Huh 7 cells. Huh 7 cells containing subgenomic HCV replicons I389luc-ubi-neo/NS3-3′/5.1 (Huh 5-2) or I377/NS3-3′/wt (Huh 9-13) have been described (Lohmann V, Korner F, Koch J, Herian U, Theilmann L, Bartenschlager R. (1999) Replication of subgenomic hepatitis C virus RNAs in a hepatoma cell line. Science 285:110-113. Lohmann V, Korner F, Dobierzewska A, Bartenschlager R. (2001) Mutations in hepatitis C virus RNAs conferring cell culture adaptation. J Virol. 75:1437-1449.). Cells were grown in Dulbecco's modified Eagle's Medium (DMEM; Gibco, Merelbeke, Belgium) supplemented with 10% heat-inactivated fetal bovine serum (FCS) (Integro, Zaandam, The Netherlands), 1× non-essential amino acids (Gibco), 100 IU/ml penicillin (Gibco), 100 μg/ml streptomycin (Gibco) and 250 μg/ml Geneticin (G418, Gibco) for Huh 5-2 cells, 1000 μg/ml G418 for Huh 9-13 cells
Anti-HCV Assay in Huh 5-2 Cells.
Huh 5-2 cells were seeded at a density of 5×10^3 per well in a tissue culture treated white 96-well view plate (Packard, Canberra, Canada) in complete DMEM supplemented with 250 μg/ml G418. Following incubation for 24 h at 37° C. (5% CO2) medium was removed and serial dilutions in complete DMEM (without G418) of the test compounds were added in a total volume of 100 μl. After 4 days of incubation at 37° C., cell culture medium was removed and luciferase activity was determined using the Steady-Glo luciferase assay system (Promega, Leiden, The Netherlands); the luciferase signal was measured using a Luminoskan Ascent (Thermo, Vantaa, Finland). The 50% effective concentration (EC50) was defined as the concentration of compound that reduced the luciferase signal by 50%.

Series [2] can be described thus: CC50 (cytotoxicity, Table I). In kind it is cell-based. As to conditions: human, Huh 7 cells; method and cell line not described.
In a further series the test system is Huh 7 cells. Kind of series: CC50 (cytotoxicity, Table I). As to conditions: method and cell line not described. In kind it is cell-based.
Series [3] has as its system subgenomic HCV replicons I377/NS3-3′/wt (Huh 9-13). Kind of series: Anti-HCV assay in Huh 9-13 cells (RT-qPCR of replicon RNA). In kind it is cell-based, hepatitis C virus (HCV). As to conditions: read-out: HCV Huh 9-13 EC50.
Source text: as §1
Anti-HCV Assay in Huh 9-13 Cells.
Huh 9-13 cells were seeded at a density of 5×10^3 cells per well in 96-well cell culture plates in complete DMEM supplemented with 1000 μg/ml G418. Following incubation for 24 h at 37° C. cell culture medium was removed and serial dilutions of the test compounds in complete DMEM without G418 were added in a total volume of 100 μl. After 4 days of incubation at 37° C., cell culture fluid was removed and monolayers were washed once with phosphate-buffered saline. Cells were lysed in 350 μl RLT buffer (Qiagen, Venlo, The Netherlands) according to the Manufacturer's instruction. Lysates were stored at −80° C. until further use. […]
Background: Quantitative PCR measures a nucleic acid by following its amplification.

Setting [4] is: Huh 5-2 cells, 4 days incubation, concentration that reduced the luciferase signal by 50%, read-out: HCV Huh 5-2 EC50.
The mark [5] stands for this setting: Hepatitis C virus, Huh-5-2, 96 h, read-out: HCV Huh 5-2 EC50, Huh 5-2 cells, 4 days incubation, concentration that reduced the luciferase signal by 50%.

Where “and” joins values, the source holds several entries; their conditions need not be identical. Equal values may be shown once. Read-outs that look alike come from different tables or passages of the source.

The text below walks through data of patent publication US8658616B2, “Nucleoside aryl phosphoramidates and their use as anti-viral agents for the treatment of hepatitis C virus” (University College Cardiff Consultants Limited, priority 2006, dated 2014).

`CC1(O)C(O)[C@@H](CO)O[C@H]1n1cnc2c(N)ncnc21` (stereo partly drawn) [CHC1, β-2′-methyl-adenosine, reference compound]: the EC50 in series [1] (Hepatitis C virus, Huh-5-2, 96 h, Huh 5-2 cells, 4 days incubation, concentration that reduced the luciferase signal by 50%, read-out: HCV Huh 5-2 EC50) is 140 nM; in series [1] (setting [4]) it was 80 nM and 130 nM. The results for the CC50 (in series [2]; with Huh 7 cells) were 29000 nM and > 33000 nM, respectively.
In the case of `CCOC(=O)[C@H](C)NP(=O)(OC[C@H]1O[C@@H](n2cnc3c(N)ncnc32)C(C)(O)C1O)Oc1cccc2ccccc12` (stereo partly drawn) [CHC2, β-2′-methyl-adenosine 5′-O-[α-naphthyl(ethoxy-L-alaninyl)]phosphate], in series [1] (setting [5]), the EC50 amounted to 120 nM. The CC50 (commonly the concentration giving 50% cytotoxicity) in series [2] was > 50000 nM.
For `C[C@H](NP(=O)(OC[C@H]1O[C@@H](n2cnc3c(N)ncnc32)C(C)(O)C1O)Oc1cccc2ccccc12)C(=O)OCc1ccccc1` (stereo partly drawn) [CHC3, β-2′-methyl-adenosine 5′-O-[α-naphthyl(benzoxy-L-alaninyl)]phosphate], in that order: 160 nM and 44000 nM.
Turning to `C[C@H](NP(=O)(OC[C@H]1O[C@@H](n2cnc3c(N)ncnc32)C(C)(O)C1O)Oc1cccc2ccccc12)C(=O)OC(C)(C)C` (stereo partly drawn) [CHC4, β-2′-methyl-adenosine 5′-O-[α-naphthyl(tert-butoxy-L-alaninyl)]phosphate], the EC50 in series [1] (setting [5]) worked out at 2360 nM. The CC50 in series [2] was > 50000 nM.
Take `C[C@@]1(O)[C@H](O)[C@@H](CO)O[C@H]1n1cnc2c(=O)[nH]c(N)nc21` [CHC5, β-2′-methyl-guanosine, reference compound]: the EC50 was 1500 nM in series [3] (Huh 9-13 cells, 4 days incubation, concentration that reduced replicon RNA content by 50% (RT-qPCR)); 3000 nM and 5000 nM in series [1] (setting [4]). In addition, the CC50 in the series with Huh 7 cells is > 50000 nM.
In the case of `C[C@H](NP(=O)(OC[C@H]1O[C@@H](n2cnc3c(=O)[nH]c(N)nc32)C(C)(O)C1O)Oc1cccc2ccccc12)C(=O)OCc1ccccc1` (stereo partly drawn) [CHC6, β-2′-methyl-guanosine 5′-O-[α-naphthyl(benzoxy-L-alaninyl)]phosphate], in series [3] (Hepatitis C virus, 96 h), the EC50 turned out to be 60 nM. In series [1], the “potency with respect to HCV compared with compound CHC5 (free nucleoside)” value was “greater potency”. Further, the CC50 in series [2] was > 50000 nM.
On to `CCOC(=O)[C@H](C)NP(=O)(OC[C@H]1O[C@@H](n2cnc3c(=O)[nH]c(N)nc32)C(C)(O)C1O)Oc1cccc2ccccc12` (stereo partly drawn) [CHC7, β-2′-methyl-guanosine 5′-O-[α-naphthyl(ethoxy-L-alaninyl)]phosphate], for which the EC50 was 150 nM in series [1] (setting [5]); 200 nM and 160 nM in series [1] (read-out: HCV Huh 5-2 EC50, Huh 5-2 cells, 4 days incubation, concentration that reduced the luciferase signal by 50%). Further, the “potency with respect to HCV compared with compound CHC5 (free nucleoside)” value in series [1] is on record as “greater potency”. Moreover, the CC50 in series [2] was > 50000 nM.
In the case of `C[C@H](NP(=O)(OC[C@H]1O[C@@H](n2cnc3c(=O)[nH]c(N)nc32)C(C)(O)C1O)Oc1cccc2ccccc12)C(=O)OC(C)(C)C` (stereo partly drawn) [CHC8, β-2′-methyl-guanosine 5′-O-[α-naphthyl(tert-butoxy-L-alaninyl)]phosphate], in series [1] (setting [5]), the EC50 was > 50000 nM. Further, in series [2], the CC50 was > 50000 nM.
On to `C[C@H](NP(=O)(OC[C@H]1O[C@@H](n2cnc3c(=O)[nH]c(N)nc32)C(C)(O)C1O)Oc1ccccc1)C(=O)OCc1ccccc1` (stereo partly drawn) [CHC9, β-2′-methyl-guanosine 5′-O-[phenyl(benzoxy-L-alaninyl)]phosphate], for which the EC50 in series [3] (Hepatitis C virus, 96 h) is 4100 nM; in series [1] (setting [5]), 36000 nM. In addition, the CC50 in series [2] was > 50000 nM.
